Common to all, as to assay: growth of human tumour cells (NCI), 48 h
Assay [1] relates to SK-MEL-5 melanoma.
Assay [2] deals with SF-268 CNS.
For assay [3], the system named is IGROV1 ovarian.
Assay [4] relates to HCC-2998 colon.
Assay [5] deals with MALME-3M melanoma.
Assay [6] deals with NCI-H522 lung.
Assay [7] deals with SR leukemia.
Assay [8] has as its system HCT-15 colon.
In assay [9] the test system is OVCAR-3 ovarian.
Assay [10] has as its system HT29 colon.

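Five concentrations, 48 hours, 96-well plates. At the GI50, growth is halved. TGI: total growth inhibition.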

`COc1cccc(NC(=O)CC(=O)NNCC(=O)Nc2nnc(-c3ccc(N(CCC#N)S(=O)(=O)c4ccccc4)cc3)s2)c1`: the TGI in [1], in [2], in [3], in assay [4], in assay [5] and in assay [6] was greater than 100 µM in each case. Moreover, the TGI in assay [7], in assay [8] and in assay [9] was greater than 100 µM throughout.
In the case of `COc1ccc2c(c1)CC1Cc3ccccc3CCN1C2` (stereo not given), the TGI is 41.7 µM in assay [1]; greater than 100 µM in [2]; greater than 100 µM in assay [3]; greater than 100 µM in assay [4]; greater than 100 µM in assay [10]; greater than 100 µM in assay [5]. Moreover, the TGI in assay [6] is 63.6 µM; in [7], greater than 100 µM; in [8], greater than 100 µM; in assay [9], greater than 100 µM.
On to `CCC(=O)NC(OCC1(CC)COC1)(C(F)(F)F)C(F)(F)F`, for which the TGI in assay [2], in assay [4], in assay [10], in assay [5], in [6] and in [7] was greater than 100 µM in each case. Also, the TGI in assay [8] and in assay [9] was greater than 100 µM each time.
Consider `COc1cc(OC)cc(-c2n/c(=C\c3c(O)[nH]c4ccc(Cl)cc34)cc3c2=Nc2ccccc2-3)c1`, for which the GI50 in [1] is 17.7 µM; in assay [2], 3.35 µM; in [3], 3.46 µM; in assay [4], 4.22 µM; in [10] it was 2.72 µM; in [5], 21.6 µM. Further, the GI50 in [6] is 3.09 µM; in assay [7] it was 2.24 µM; in assay [8], 6.58 µM; in assay [9], 2.46 µM. In addition, the TGI in assay [1] is 62.5 µM; in assay [2] it was 11.4 µM; in assay [3], 10.1 µM; in assay [4], 19.5 µM; in assay [10], 6.22 µM; in assay [5], 44.7 µM. Moreover, the TGI in [6] is 10.5 µM; in assay [7], 5.59 µM; in [8] it was 27.7 µM; in [9], 5.22 µM.
In the case of `CCNc1ncnc2c1nnn2CC`, the TGI in assay [1], in assay [3], in assay [4], in [10], in [5] and in assay [6] was greater than 100 µM in each case. For the same molecule, the TGI in assay [8] and in [9] was greater than 100 µM throughout.
Regarding `COC(=O)C1=C(C)N(NC(=O)c2ccccc2)C2(O)CCCC(=O)C12C` (stereo not given), the TGI in assay [1], in assay [3], in assay [10], in assay [5], in assay [6] and in [8] was greater than 100 µM throughout. The molecule further showed a TGI in assay [9] greater than 100 µM.
As for `CC(C)(C)OC(=O)NCC(=O)NC1C/C(=N\O)c2sccc21` (stereo not given), the TGI in [1], in [2], in assay [3], in assay [4], in assay [10] and in [5] was greater than 100 µM each time. The TGI in assay [7], in [8] and in assay [9] was greater than 100 µM in each case.
As to `CN(/N=N/c1nc[nH]c1C(N)=O)C1CCCCC1`, the TGI in assay [1], in [2], in assay [3], in [4], in assay [10] and in assay [5] was greater than 100 µM each time. For the same molecule, the TGI in [6], in assay [7], in assay [8] and in assay [9] was greater than 100 µM each time.
Take `COc1ccc2c(c1OC)C(=O)O[C@@H]2[C@H]1c2cc3c(cc2CCN1C)OCO3`: the TGI in assay [1], in assay [2], in assay [3], in [4], in assay [10] and in assay [6] was greater than 100 µM in each case. The TGI in assay [7], in assay [8] and in assay [9] was greater than 100 µM each time.
